Marks after values point to notes of the source that are not given here.
Key:
[1] = tested on: lymphocytes of thymus, spleen, lymph nodes, peripheral blood; assay: Recovery of immune cells in irradiated guinea pigs (1 Gy); type: in vivo; conditions: for E-RFC / E-RFC (% Normal) / EA-RFC / EA-RFC (% Normal) / EAC-RFC / EAC-RFC (% Normal) / Lymphocytes / Lymphocytes (% Normal) / Lymphocyte Blastogenesis with Con-A / Neutrophil Cationic Protein Levels: 0.01 mg/kg daily 5 days
From the text: X-irradiation an accepted experimental animal model for depressing cellular immune mechanisms operative in anti-bacterial, anti-viral, and anti-parasitic immunity. The levels of lymphocytes in thymus, spleen, and lymph node are decreased following sub-lethal radiation exposure, and the effects of L-Glu-L-Trp on recovery of immune function following radiation exposure were investigated in this model.
142 guinea pigs were exposed to 1 Gy of X-irradiation and then treated with L-Glu-L-Trp at a dose of 0.01 mg/kg daily for 5 days starting two days after the irradiation. Immunologic indices were determined at 5, 10, and 20 days by preparing samples of immune cells from thymus, spleen, lymph nodes, and peripheral blood. Cell preparations were analyzed to determine the content of lymphocytes, E-RFC (i.e., T-lymphocytes), EA-RFC (“activated” T-lymphocytes), and EAC-RFC (i.e., B-lymphocytes). (The materials and methods used in these analyses are presented following EXAMPLE 38, below. The results obtained in these experiments are summarized in TABLE 55. […]
Neutrophil cationic proteins were determined according to the method of V. E. Pigarevsky and Yu. A. Mazing (1981). Briefly, blood smears were air dried, stained for 20 minutes in a buffered methanol.-fast green solution, washed in distilled water, and stained for an additional 30 minutes with Azure 11. The percentage of cells containing green-colored granules was determined by microscopically counting a minimum of 100-200 of the cells in the smears, and cation protein concentration was recorded as the mean cytotoxic coefficient (MCC) according to a modified formula of Astold & Berg.

[2] = tested on: upper respiratory infections; assay: Prophylaxis of respiratory infections in polar explorers; type: in vivo, human; conditions: intranasal 1 μg/kg, 3 days
[3] = Influenza symptoms and sinusitis (Protocol F); type: in vivo, human
Method: Summary Overview: Fifty-one patients (51) were treated daily for 3-10 days with either 100 μg L-Glu-L-Trp administered im, or 1 μg/kg administered intranasally. A control group of 24 similar patients remained untreated.

[4] = tested on: human peripheral blood T-lymphocytes; assay: OKT4+ and OKT8+ lymphocytes from patients with secondary immunodeficiency after in vitro incubation; type: cell-based; conditions: for OKT4^+/OKT8^+ ratio / mean percentage of T-helper (OKT4^+) lymphocytes / mean percentage of T-suppressor (OKT8^+) lymphocytes: 45 minutes at 37° C.
From the text: The effects of L-Glu-L-Trp on human peripheral blood T-lymphocytes was investigated using indirect immunofluorescence microscopy and OKT4 and OKT8 monoclonal antibodies (Ortho, USA) directed to lymphocyte cell surface differentiation antigens. For these studies lymphocytes were isolated from heparinized peripheral blood (25 units heparin/mL) isolated from 18 different donors with inflammatory lung diseases and chronic purulent bronchitis accompanied by a secondary immunodeficiency state. Lymphocytes were prepared by centrifugation on Ficoll-Hypaque, washed, and then incubated in vitro for 45 minutes at 37° C. in the presence (or absence) of L-Glu-L-Trp at concentrations of 1 mg/mL, 0.01 mg/mL, 0.0001 mg/mL. Following incubation the cells were washed with Medium 199 and the percentage of OKT4^+ (T-helper) and OKT8^+ (T-suppressor) lymphocytes determined by indirect immunofluorescent microscopy. The results presented in TABLE 51 show the mean percentages of OKT4^+ and OKT8^+ cells in this group of patients after incubation with Medium 199 (Control), or with L-Glu-L-Trp.

[5] = Complications of pregnancy: toxemia (Protocol B); design: species or system human; conditions: in vivo
Method: L-Glu-L-Trp was administered im at 100 μg daily, or 1 μg/kg intranasally, for 5-10 days.

[6] = lymph node, 5 days post irradiation (1 Gy)
[7] = lymph node, 10 days post irradiation (1 Gy)
[8] = lymph node, 20 days post irradiation (1 Gy)
[9] = peripheral blood, 5 days post-irradiation
[10] = peripheral blood, 10 days post-irradiation
[11] = peripheral blood, 20 days post-irradiation
[12] = splenic, 5 days post irradiation (1 Gy)
[13] = splenic, 10 days post irradiation (1 Gy)
[14] = splenic, 20 days post irradiation (1 Gy)
[15] = thymic, 5 days post irradiation (1 Gy)
[16] = thymic, 10 days post irradiation (1 Gy)
[17] = thymic, 20 days post irradiation (1 Gy)

L-Glu-L-Trp
Splenic B-lymphocytes (EAC-RFC), % of normal ([1]; day 5): 82%
Thymic T-lymphocyte counts, % of normal ([1]; day 5): 67%
Thymic lymphocytes, % of normal ([1]; day 5): 82%
Splenic B-lymphocytes (EAC-RFC), % of normal ([1]; day 10): 100%
Thymic T-lymphocyte counts, % of normal ([1]; day 10): 51%
Thymic lymphocytes, % of normal ([1]; day 10): 56%
Lymph node T-lymphocyte counts ([1]; guinea pig, in vivo): significantly increased T-lymphocyte counts in lymph nodes on days 5, 10 and 20
E-RFC [1, 6]: 40 +/− 4** × 10^9/L
E-RFC (% Normal) [1, 6]: (122%)
EA-RFC [1, 6]: 20 +/− 3** × 10^9/L
EA-RFC (% Normal) [1, 6]: (111%)
EAC-RFC [1, 6]: 25 +/− 2** × 10^9/L
EAC-RFC (% Normal) [1, 6]: (45%)
Lymphocytes [1, 6]: 183 +/− 21* × 10^9/L
Lymphocytes (% Normal) [1, 6]: (73%)
E-RFC [1, 7]: 29 +/− 3** × 10^9/L
E-RFC (% Normal) [1, 7]: (88%)
EA-RFC [1, 7]: 17 +/− 2** × 10^9/L
EA-RFC (% Normal) [1, 7]: (94%)
EAC-RFC [1, 7]: 12 +/− 1* × 10^9/L
EAC-RFC (% Normal) [1, 7]: (21%)
Lymphocytes [1, 7]: 75 +/− 13* × 10^9/L
Lymphocytes (% Normal) [1, 7]: (30%)
E-RFC [1, 8]: 30 +/− 2** × 10^9/L
E-RFC (% Normal) [1, 8]: (91%)
EA-RFC [1, 8]: 25 +/− 4** × 10^9/L
EA-RFC (% Normal) [1, 8]: (139%)
EAC-RFC [1, 8]: 9 +/− 1* × 10^9/L
EAC-RFC (% Normal) [1, 8]: (16%)
Lymphocytes [1, 8]: 242 +/− 31** × 10^9/L
Lymphocytes (% Normal) [1, 8]: (96%)
Con-A responsiveness and neutrophil cationic proteins ([1]; peripheral blood): statistically significant decrease in Con-A responsiveness and increased levels of neutrophil cationic proteins
Lymphocyte Blastogenesis with Con-A [1, 9]: 44 +/− 4** %
Neutrophil Cationic Protein Levels [1, 9]: 1.42 +/− 0.15*
Lymphocyte Blastogenesis with Con-A [1, 10]: 67 +/− 5** %
Neutrophil Cationic Protein Levels [1, 10]: 1.54 +/− 0.09**
Lymphocyte Blastogenesis with Con-A [1, 11]: 49 +/− 2** %
Neutrophil Cationic Protein Levels [1, 11]: 1.63 +/− 0.11**
E-RFC [1, 12]: 48 +/− 4** × 10^9/L
E-RFC (% Normal) [1, 12]: (120%)
EA-RFC [1, 12]: 22 +/− 4** × 10^9/L
EA-RFC (% Normal) [1, 12]: (85%)
EAC-RFC [1, 12]: 60 +/− 5** × 10^9/L
EAC-RFC (% Normal) [1, 12]: (82%)
Lymphocytes [1, 12]: 378 +/− 36** × 10^9/L
Lymphocytes (% Normal) [1, 12]: (92%)
E-RFC [1, 13]: 29 +/− 3* × 10^9/L
E-RFC (% Normal) [1, 13]: (73%)
EA-RFC [1, 13]: 15 +/− 2* × 10^9/L
EA-RFC (% Normal) [1, 13]: (58%)
EAC-RFC [1, 13]: 73 +/− 5** × 10^9/L
EAC-RFC (% Normal) [1, 13]: (100%)
Lymphocytes [1, 13]: 147 +/− 18** × 10^9/L
Lymphocytes (% Normal) [1, 13]: (36%)
E-RFC [1, 14]: 45 +/− 4** × 10^9/L
E-RFC (% Normal) [1, 14]: (113%)
EA-RFC [1, 14]: 29 +/− 4** × 10^9/L
EA-RFC (% Normal) [1, 14]: (112%)
EAC-RFC [1, 14]: 82 +/− 9 × 10^9/L
EAC-RFC (% Normal) [1, 14]: (112%)
Lymphocytes [1, 14]: 260 +/− 32** × 10^9/L
Lymphocytes (% Normal) [1, 14]: (64%)
E-RFC [1, 15]: 252 +/− 26** × 10^9/L
E-RFC (% Normal) [1, 15]: (67%)
EA-RFC [1, 15]: 150 +/− 16** × 10^9/L
EA-RFC (% Normal) [1, 15]: (52%)
EAC-RFC [1, 15]: 4 +/− 1** × 10^9/L
EAC-RFC (% Normal) [1, 15]: (80%)
Lymphocytes [1, 15]: 395 +/− 27** × 10^9/L
Lymphocytes (% Normal) [1, 15]: (82%)
E-RFC [1, 16]: 195 +/− 21** × 10^9/L
E-RFC (% Normal) [1, 16]: (51%)
EA-RFC [1, 16]: 143 +/− 16** × 10^9/L
EA-RFC (% Normal) [1, 16]: (49%)
EAC-RFC [1, 16]: 3 +/− 0.4* × 10^9/L
EAC-RFC (% Normal) [1, 16]: (60%)
Lymphocytes [1, 16]: 276 +/− 26** × 10^9/L
Lymphocytes (% Normal) [1, 16]: (57%)
E-RFC [1, 17]: 343 +/− 30** × 10^9/L
E-RFC (% Normal) [1, 17]: (91%)
EA-RFC [1, 17]: 243 +/− 28** × 10^9/L
EA-RFC (% Normal) [1, 17]: (84%)
EAC-RFC [1, 17]: 4 +/− 0.4 × 10^9/L
EAC-RFC (% Normal) [1, 17]: (80%)
Lymphocytes [1, 17]: 423 +/− 40** × 10^9/L
Lymphocytes (% Normal) [1, 17]: (88%)
Clinical outcome [2]: prevented the occurrence of upper respiratory infections
Clinical outcome ([3]; in vivo): reduced nasal mucous swelling, normalization of breathing
Decrease of total duration of patient treatment ([3]; vs control group): up to 1.7 fold
Percentage of detectable OKT8+ T-suppressor cells [4]: did not alter the percentage of detectable OKT 8^+ T-suppressor cells
Percentage of detectable T-helpers (OKT4+) ([4]; 1 and 0.01 mg/mL): increased the percentage of detectable T-helpers
OKT4^+/OKT8^+ ratio ([4]; Dose 0.0001 mg/ml): 1.1
mean percentage of T-helper (OKT4^+) lymphocytes ([4]; Dose 0.0001 mg/ml): 25.4 ± 2.3
mean percentage of T-suppressor (OKT8^+) lymphocytes ([4]; Dose 0.0001 mg/ml): 23.1 ± 2.1
OKT4^+/OKT8^+ ratio ([4]; Dose 0.01 mg/ml): 1.8*
mean percentage of T-helper (OKT4^+) lymphocytes ([4]; Dose 0.01 mg/ml): 39.8 ± 2.4
mean percentage of T-suppressor (OKT8^+) lymphocytes ([4]; Dose 0.01 mg/ml): 22.7 ± 1.8
OKT4^+/OKT8^+ ratio ([4]; Dose 1 mg/ml): 1.9*
mean percentage of T-helper (OKT4^+) lymphocytes ([4]; Dose 1 mg/ml): 39.7 ± 2.7
mean percentage of T-suppressor (OKT8^+) lymphocytes ([4]; Dose 1 mg/ml): 21.4 ± 1.3
Clinical outcome [5]: normalized blood pressure

From US6368788B1 (priority 1987, dated 2002)
